Key:
CD4+ human T cells = assay: Human Autoimmune and Inflammatory Response Gene Array, anti-CD3-stimulated T cells with or without antibiotic; assay type: cell-based; conditions: 120 min anti-CD3; for % increase by Amp: ampicillin 50 μg/ml
Method: T cells were purified from the peripheral bloods of healthy human donors (Blood Bank, Sheba Medical center). The whole blood was incubated (20 min, 22° C.) with RosetteSep™ human T cell enrichment mixture (StemCell Technologies, Vancouver, Canada). The remaining unsedimented cells were then loaded onto lymphocyte separation medium (ICN Biomedicals, Irvine, Calif.), isolated by density centrifugation, and washed with PBS. […] In a second round of purification, CD3^+ T cells were labeled for selection with a magnetically coupled mAb against CD4 (Miltenyi Biotec, Auburn, Calif.).
Human CD4 T cells were isolated as described, and incubated in 24 well plates (Nunc), 4×10^6 cells/ml with plate bound anti-human CD3 (OKT3) at 2 μg/ml. The stimulation was performed in RPMI medium supplemented with 0.1% BSA. […] RNA was extracted from samples and used to prepare probes for gene array in accord with the manufacturer's instructions (SuperArray Bioscience, Frederick, Md.). Adequate labeling of the probes was tested before hybridization. Three healthy donors were tested in stimulation with cefuroxime. The membranes were analyzed online with the Image Data Acquisition and Expression Analysis (SuperArray Bioscience).
The Human Autoimmune and Inflammatory Response Gene Array (SuperArray Bioscience corporation, Frederick, Md., USA) was used for analysis of gene expression by the T cells. This array contains 367 genes including cytokines, chemokines and their receptors, transcription factors and signaling proteins. […] Analysis of the results was performed using the GEArray analysis program. […] To verify the results detected by the gene array study, a panel of six genes was designed and tested by real-time PCR: CCR4, ACVR2, JAK1, STAT4, TLR2 and NFKBIE. The cDNA that was used was prepared from the same RNA used for the gene array experiment.

[1] = test system: encephalitogenic BP10 line; assay: Adoptive EAE: BP10 T-cell line stimulated in vitro with test substance, then injected into naive rats; assay type: in vivo, rat; conditions: BP10 line stimulated 3 days with MBP in presence of 50 μg/ml antibiotic; 10^7 cells per rat
Method: Antigen-specific T-cell lines were established from lymph node cells that had been stimulated with myelin basic protein (MBP; 10 μg/ml) for 3 days in stimulation medium as described below. Following stimulation, the T-cell blasts were isolated on LYMPHOPREP™ (Nycomed Pharma, Oslo, Norway) and seeded in propagation medium. Propagation medium was identical to stimulation medium without autologous serum, but supplemented with fetal calf serum 10% and T-cell growth factors from the supernatant of Con A stimulated spleen cells 10% (Mor et al. (1990) J Clin Invest, 85, 1594-1598). Animals were injected intra-peritoneally with 107 MBP-stimulated T cells, following 6-8 cycles of in vitro stimulations. It is known that MBP-reactive lines undergo a reduction in pathogenicity after 6 or more in vitro stimulations. In some experiments the BP10 line was stimulated with phorbol myristate acetate (PMA; 50 ng/ml) and ionomycin (500 ng/ml) for 3 days in stimulation medium, without antigen-presenting cells.
Active EAE was induced by subcutaneous injection of 25 μg guinea-pig MBP (GpMBP) in complete Freund's adjuvant (CFA). […] Adoptive EAE was transferred by intra-peritoneal injection of guinea-pig MBP-activated cells of the BP10 line as described in Mor et al. (1993) J Clin Invest, 92, 2199-2206. […] Clinical scoring was: +1, paralysis of tail; +1.5, paresis of posterior paws and ataxia; +2, paraplegia; +3, paralysis extending to thoracic spine; +4, a moribund state.
Treatment with cefuroxime in vivo could affect many different host agents involved in EAE or AA as well as influencing the rats' bacterial flora. To test whether the antibiotic might directly modify the behavior of effector T cells, an encephalitogenic T-cell line was stimulated in the presence or absence of cefuroxime in vitro. The weakly encephalitogenic BP10 line was used, and was stimulated for 3 days with MBP in the presence or absence of cefuroxime (50 μg/ml). The activated T cells were then washed to remove the antibiotic, the T cells were injected intra-peritoneally into naïve recipient rats (10^7 per rat), and EAE was scored. The BP10 line at later stimulations was used, when its pathogenic potential is reduced, allowing to detect both suppression and enhancement of disease. […] To rule out antigen presenting cells (APC) as the target of the beta-lactam antibiotic, the encephalitogenic BP10 line was stimulated without APC using PMA (50 ng/ml) and Ionomycin (500 ng/ml) in the presence or absence of cefuroxime.
Additional beta-lactam antibiotics were tested for their effect on the adoptive transfer of EAE.
A control group was injected with the untreated line.

## CC1(C)S[C@@H]2[C@H](NC(=O)[C@H](N)c3ccccc3)C(=O)N2[C@H]1C(=O)O [ampicillin]
CD4+ human T cells; 50 μg/ml
  number of the 57 cefuroxime-down-regulated genes that were up-regulated: 56 genes
CD4+ human T cells; gene ACTB
  % increase by Amp: +196%
CD4+ human T cells; gene ACVR1, A low expression
  % increase by Amp: +53%
CD4+ human T cells; gene ACVR2, A low expression
  % increase by Amp: +85%
CD4+ human T cells; gene CCL5
  % increase by Amp: +25%
CD4+ human T cells; gene CCL11
  % increase by Amp: +107%
CD4+ human T cells; gene CCR4
  % increase by Amp: +31%
CD4+ human T cells; gene CCR6
  % increase by Amp: +83%
CD4+ human T cells; gene CCR7
  % increase by Amp: +43%
CD4+ human T cells; gene CD28
  % increase by Amp: +175%
CD4+ human T cells; gene CD40LG
  % increase by Amp: +67%
CD4+ human T cells; gene CREBBP
  % increase by Amp: +49%
CD4+ human T cells; gene CXCL10
  % increase by Amp: +25%
CD4+ human T cells; gene EGR3
  % increase by Amp: −25%
CD4+ human T cells; gene GFI1
  % increase by Amp: +10%
CD4+ human T cells; gene HRAS, A low expression
  % increase by Amp: −12%
CD4+ human T cells; gene IL1B, A low expression
  % increase by Amp: +64%
CD4+ human T cells; gene IL2RB
  % increase by Amp: +93%
CD4+ human T cells; gene IL2RG, A low expression
  % increase by Amp: +78%
CD4+ human T cells; gene IL9R
  % increase by Amp: No change
CD4+ human T cells; gene IL16, A low expression
  % increase by Amp: +14%
CD4+ human T cells; gene IRAK1
  % increase by Amp: +171%
CD4+ human T cells; gene JAK1
  % increase by Amp: +161%
CD4+ human T cells; gene JUN
  % increase by Amp: +65%
CD4+ human T cells; gene LTA
  % increase by Amp: +48.5%
CD4+ human T cells; gene MAP2K4
  % increase by Amp: +150%
CD4+ human T cells; gene MAP3K1, A low expression
  % increase by Amp: +63%
CD4+ human T cells; gene MAP3K2
  % increase by Amp: +93%
CD4+ human T cells; gene MAP3K7
  % increase by Amp: +124%
CD4+ human T cells; gene MAPK9
  % increase by Amp: +46%
CD4+ human T cells; gene NFKB1
  % increase by Amp: +31%
CD4+ human T cells; gene NFKB2
  % increase by Amp: +195%
CD4+ human T cells; gene NFKBIE
  % increase by Amp: +132%
CD4+ human T cells; gene NFKBIL1
  % increase by Amp: +191%
CD4+ human T cells; gene PAK1
  % increase by Amp: +111%
CD4+ human T cells; gene PIN1
  % increase by Amp: +105%
CD4+ human T cells; gene RANBP5
  % increase by Amp: +108%
CD4+ human T cells; gene REL
  % increase by Amp: +132%
CD4+ human T cells; gene RFX5
  % increase by Amp: +137%
CD4+ human T cells; gene RFXAP
  % increase by Amp: +131%
CD4+ human T cells; gene SDF2
  % increase by Amp: +71%
CD4+ human T cells; gene SELL
  % increase by Amp: +124%
CD4+ human T cells; gene SMAD4
  % increase by Amp: +85%
CD4+ human T cells; gene SMAD7, A low expression
  % increase by Amp: +34%
CD4+ human T cells; gene SP3
  % increase by Amp: +47%
CD4+ human T cells; gene SRF
  % increase by Amp: +58%
CD4+ human T cells; gene STAT1
  % increase by Amp: +85%
CD4+ human T cells; gene STAT4
  % increase by Amp: +11%
CD4+ human T cells; gene STAT6
  % increase by Amp: no change
CD4+ human T cells; gene TGFBR3
  % increase by Amp: +139%
CD4+ human T cells; gene TGIF, A low expression
  % increase by Amp: +72%
CD4+ human T cells; gene TLR2, A low expression
  % increase by Amp: +419%
CD4+ human T cells; gene TNFRSF11, A low expression
  % increase by Amp: +81%
CD4+ human T cells; gene TNFα
  % increase by Amp: +39%
CD4+ human T cells; gene TRAF5, A low expression
  % increase by Amp: +47%
CD4+ human T cells; gene TRAF6, A low expression
  % increase by Amp: +39%
CD4+ human T cells; gene YY1
  % increase by Amp: +152%
[1]
  severity of adoptive EAE in recipient rats: did not increase the severity of EAE
